Results from US9827255B2, “Fumagillol derivatives” (Takeda Pharmaceutical Company Limited, priority 2014, dated 2017).
Read-outs that look alike come from different tables or passages of the source.

Legend:
[1] = Body weight loss in high-fat diet C57bl/6 mice; assay type: in vivo; settings: once daily, 28 days, oral gavage, male C57bl/6 mice on high-fat diet, BW loss relative to pretreatment
Text: Ten to twelve weeks old male C57bl/6 mice are obtained from commercial vendors, and placed on high-fat diet (60% kcal fat) for at least 15 weeks. Treatment with MetAP2 inhibitors is initiated when the average body weight reaches approximately 50 g. The MetAP2 inhibitors are formulated in an aqueous solution of 0.5% methyl cellulose and administered through oral gavage. Control animals receive the equivalent volume of aqueous 0.5% methyl cellulose solution without a MetAP2 inhibitor. Body weight (BW) and food intake are recorded daily, and efficacy is calculated individually as a percentage of BW loss relative to the pretreatment values. Depending on the study design, the treatment is continued for 12, 14 or 28 days. In some studies, indirect calorimetry or body composition are determined at the end of the treatment.
TABLE 2 lists body weight loss (BWL) in mice following treatment with some of the compounds shown in the examples. The compounds shown in TABLE 2 were tested in accordance with the BWL protocol described in the specification beginning at page 36, using the dose, dosing regimen (frequency), and treatment duration indicated in table.

[2] = Hypoglycemic activity in KKA^y mice; assay type: in vivo; settings: 10 mg/kg once daily oral gavage, 4-week treatment, male KKA^y mice, mean±SD of 8 animals, p < 0.025 vs. control
Description: Six-week-old male KKA^y mice are obtained from commercial vendors and placed on standard chow. Treatment with a MetAP2 inhibitor is initiated after 8-day acclimization. The MetAP2 inhibitor is formulated in an aqueous 0.5% methylcellulose solution, which is administered once daily through oral gavage. Control animals are treated with the equivalent volume of aqueous 0.5% methylcellulose solution without the compound. After 4 weeks, blood is collected from the tail vein of each of the mice. Glycated hemoglobin levels are measured using a Tosoh HLC-723G8 automated glycohemoglobin analyzer, and plasma glucose levels are measured using a Hitachi model 7180 automated glucose analyzer. For evaluation of the hypoglycemic activity of the MetAP2 inhibitor, statistical differences between control- and compound-treated groups are analyzed using a one-tailed Williams test.
TABLE 3 lists glycated hemoglobin (GHb) and plasma glucose (PG) levels in KKA^y mice after a 4-week treatment with the compound shown in Example 1. The study was conducted in accordance with the protocol described in the specification beginning at page 37, using the dose indicated in table. Values are indicated by mean±standard deviation of 8 animals in each group.

MetAP2 [3] = biological target: T1, MetAP2 (Homo sapiens, UniProt P50579); test: MetAP2 cellular activity: Western blotting of NMet-14-3-3γ in HUVEC cells; assay type: cell-based; parameters: host or cells: HUVEC; settings: 24 hours, ratio of unprocessed N-Met14-3-3γ over β-actin, read-out: MetAP2 Cell pEC50 (converted)
Description: HUVEC cells (Lonza) are seeded in 96-well tissue culture microplates and cultured for 24 hours prior to addition of test compounds (11 point range of serial dilutions) or DMSO vehicle. After 24 hours, whole cell extracts are prepared by lysing cells in cell extraction buffer (Cell Signaling) containing protease and phosphatase inhibitors (Calbiochem). Insoluble material is removed by centrifugation and samples are diluted and boiled in SDS-PAGE buffer. Proteins are resolved by SDS-PAGE and transferred to PVDF membranes. Membranes are blocked then incubated with the appropriate primary antibodies, NMet-14-3-3γ (Novus) and β-actin (Sigma), followed by incubation with secondary IRDye 680- or 800CW-conjugated antibodies (Li-Cor). Membranes are scanned on the Odyssey (Li-Cor) and signals corresponding to N-Met14-3-3γ and β-actin are quantified using LiCor software. Compound EC50s are obtained by curve-fitting the ratios of unprocessed N-Met14-3-3γ protein signal over β-actin protein signal using XLfit4 Microsoft Excel curve-fitting software and are reported as pEC50, i.e., −log(EC50), where EC50 is the molar concentration at 50% effective (maximal) response.
TABLE 1 lists MetAP2 inhibition for some of the compounds shown in the examples, where larger pIC50 and pEC50 values represent higher potency. The compounds shown in TABLE 1 were tested in accordance with the enzyme assay (pIC50) described in the specification beginning at page 35, in which the MetAP2 enzyme is complexed with cobalt or manganese ions, and in accordance with the cellular assay (pEC50) described in the specification beginning at page 36.

MetAP2 [4] = biological target: T1, MetAP2; test: Enzyme assay: inhibition of MetAP2 (Met-AMC substrate, fluorescence); assay type: biochemical; parameters: made in house; host or cells: Spodoptera frugiperda Sf9 cells (baculovirus, pFastBac)
Description: DNA encoding the full-length sequence of human MetAP2 enzyme is amplified by PCR and cloned into a pFastBac expression vector (Invitrogen). Recombinant baculovirus incorporating the MetAP2 construct is generated by transposition using the Bac-to-Bac system (Invitrogen). The expression of recombinant protein is carried out by infection of Spodoptera frugiperda Sf9 cells (Invitrogen) in 5 L Wave Bioreactors (Wave Biotech). Recombinant protein is isolated from cellular extracts by binding to an SP Hitrap Fast Flow or SP Sepharose (Sigma) column, and the protein is eluted using a NaCl gradient. Partially purified extracts of MetAP2 are further purified by an AKTA FPLC over a Superdex-200 column (GE). The purity of MetAP2 protein is determined on denaturing SDS-PAGE gel. Purified MetAP2 protein is concentrated to a final concentration of 17 mg/mL or 2.5 mg/mL. The protein is stored at −78° C. in a buffer containing 10 mM HEPES pH 7.4, 150 mM NaCl, and 1 mM CoCl2 or in a buffer containing 20 mM HEPES pH 7.4, 120 mM NaCl, and 5 mM MnCl2.
The inhibition of MetAP2 is determined using a black 384-well-plate format under the following reaction conditions: 50 mM Hepes pH 7.5, 100 mM NaCl, 10 μM MnCl2 or 10 μM CoCl2, 0.005% Brij35®, 1 mM TCEP, 1% DMSO. To initiate the assay, 4 μL of 5 to 50 nM MetAP2 enzyme solution (enzyme final concentration is 2 to 20 nM) is added to each well, followed by the addition of 2 μL of the test compound (2.5-fold serial dilutions for 11 data points for each test compound) in a buffer solution containing 5% DMSO. Next, 4 μL of a substrate solution (2.5×Km of Met-AMC) is added to each well of the plate (final substrate concentration at Km value). The reaction rate is monitored by reading fluorescence at 460 nm with excitation wavelength at 330 nm for 10 to 30 minutes using a fluorescence plate reader. The results for each well are expressed as percent inhibition and calculated using the equation: […]

[5] = MetAP2 enzyme complexed with cobalt ions, read-out: MetAP2 Co pIC50 (converted)

T1 sequence (P50579 whole entry): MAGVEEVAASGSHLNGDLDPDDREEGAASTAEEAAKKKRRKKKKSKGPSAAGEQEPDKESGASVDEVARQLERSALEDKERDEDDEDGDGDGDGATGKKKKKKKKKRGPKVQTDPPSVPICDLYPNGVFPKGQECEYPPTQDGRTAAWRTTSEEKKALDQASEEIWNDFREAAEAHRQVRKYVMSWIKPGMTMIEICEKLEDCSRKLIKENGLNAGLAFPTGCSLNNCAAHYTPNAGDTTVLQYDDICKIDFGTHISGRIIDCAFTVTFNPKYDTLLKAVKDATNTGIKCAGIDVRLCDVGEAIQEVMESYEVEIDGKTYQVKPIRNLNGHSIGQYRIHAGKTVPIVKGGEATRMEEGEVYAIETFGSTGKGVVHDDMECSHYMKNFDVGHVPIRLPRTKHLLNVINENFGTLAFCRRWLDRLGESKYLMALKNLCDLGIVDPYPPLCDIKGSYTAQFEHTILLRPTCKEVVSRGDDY

Row | Structure (SMILES) | BWL ([1]; 3 mg/kg) | GHb (glycated hemoglobin) ([2]; control 6.8 ± 0.4) | PG (plasma glucose) ([2]; control 436.6 ± 64.4) | EC50 (MetAP2 [3]) | IC50 (MetAP2 [4]; [5]) | IC50 (MetAP2 [4]; MetAP2 enzyme complexed with manganese ions, read-out: MetAP2 Mn pIC50 (converted)) | BWL ([1]; 1 mg/kg)
1 | CO[C@@H]1[C@H](OCCP(=O)(c2ccccc2)c2ccccc2)CC[C@]2(CO2)[C@H]1[C@@]1(C)O[C@@H]1CC=C(C)C [Example 1, (2-(((3R,4S,5S,6R)-5-methoxy-4-((2R,3R)-2-methyl-3-(3-methylbut-2-en-1-yl)oxiran-2-yl)-1-oxaspiro[2.5]octan-6-yl)oxy)ethyl)diphenylphosphine oxide] | 18% | 5.6 ± 0.4 % | 296.5 ± 77.4 mg/dL | 4.79 nM | 44.7 nM | 200 nM | –
2 | CO[C@@H]1[C@H](OCCP(=O)(c2ccc(C)cc2)c2ccc(C)cc2)CC[C@]2(CO2)[C@H]1[C@@]1(C)O[C@@H]1CC=C(C)C [Example 2, (2-(((3R,4S,5S,6R)-5-methoxy-4-((2R,3R)-2-methyl-3-(3-methylbut-2-en-1-yl)oxiran-2-yl)-1-oxaspiro[2.5]octan-6-yl)oxy)ethyl)di-p-tolylphosphine oxide] | – | – | – | 6.61 nM | – | – | –
3 | CO[C@@H]1[C@H](OCCP(=O)(OC)OC)CC[C@]2(CO2)[C@H]1[C@@]1(C)O[C@@H]1CC=C(C)C [Example 4, dimethyl (2-(((3R,4S,5S,6R)-5-methoxy-4-((2R,3R)-2-methyl-3-(3-methylbut-2-en-1-yl)oxiran-2-yl)-1-oxaspiro[2.5]octan-6-yl)oxy)ethyl)phosphonate] | – | – | – | 3.47 nM | – | – | –
4 | CCOP(=O)(CCO[C@@H]1CC[C@]2(CO2)[C@@H]([C@@]2(C)O[C@@H]2CC=C(C)C)[C@@H]1OC)OCC [Example 5, diethyl (2-(((3R,4S,5S,6R)-5-methoxy-4-((2R,3R)-2-methyl-3-(3-methylbut-2-en-1-yl)oxiran-2-yl)-1-oxaspiro[2.5]octan-6-yl)oxy)ethyl)phosphonate] | – | – | – | 6.17 nM | 97.7 nM | – | 18%
